Experimental data taken from ChEMBL document CHEMBL1201862, “PubChem BioAssay data set” (2004).
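Exposure lasted 48 hours, with cells grown in 96-well plates and compounds tested at five concentrations. Abbreviation: GI50, concentration required for 50% inhibition of growth.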 Activity calls are given as the source filed them. Rule as the data show it: active = GI50 up to about 1.1 µM and inactive = higher.

Assays:
Assay in all cases: inhibition of tumour cell growth, NCI panel, 48 h
U-251 = system: U-251
OVCAR-3 = system: OVCAR-3
PC-3 = system: PC-3
UACC-62 = system: UACC-62
CAKI-1 = system: CAKI-1
COLO 205 = system: COLO 205
HOP-92 = system: HOP-92
CCRF-CEM = system: CCRF-CEM
MDA-MB-435 = system: MDA-MB-435
NCI-H460 = system: NCI-H460
UO-31 = system: UO-31
Malme-3M = system: Malme-3M
DU-145 = system: DU-145
HOP-62 = system: HOP-62
SF-268 = system: SF-268
SF-539 = system: SF-539
OVCAR-4 = system: OVCAR-4
MDA-MB-231 = system: MDA-MB-231
HCC 2998 = system: HCC 2998
RPMI-8226 = system: RPMI-8226

SMILES	GI50 (U-251)	GI50 (OVCAR-3)	GI50 (PC-3)	GI50 (UACC-62)	GI50 (CAKI-1)	GI50 (COLO 205)	GI50 (HOP-92)	GI50 (CCRF-CEM)	GI50 (MDA-MB-435)	GI50 (NCI-H460)	GI50 (UO-31)	GI50 (Malme-3M)	GI50 (DU-145)	GI50 (HOP-62)	GI50 (SF-268)	GI50 (SF-539)	GI50 (OVCAR-4)	GI50 (MDA-MB-231)	GI50 (HCC 2998)	GI50 (RPMI-8226)
COc1ccc(N2C(=O)CS(=O)(=O)C2c2cccc(Oc3ccccc3)c2)cc1 (stereo unspecified)	4.66 µM (inactive)	4.03 µM (inactive)	3.65 µM (inactive)	2.21 µM (inactive)	2.72 µM (inactive)	3.29 µM (inactive)	7.52 µM (inactive)	5.25 µM (inactive)	0.959 µM (active)	2.61 µM (inactive)	7.18 µM (inactive)	7.74 µM (inactive)	6.65 µM (inactive)	7.53 µM (inactive)	4.98 µM (inactive)	3.54 µM (inactive)	5.79 µM (inactive)	2.69 µM (inactive)	–	–
C=CC(c1ccccc1)C1(O)c2cccc(O)c2C(=O)c2c(O)cccc21 (stereo unspecified)	11.7 µM (inactive)	18 µM (inactive)	13.9 µM (inactive)	–	16.7 µM (inactive)	–	15.9 µM (inactive)	–	4.01 µM (inactive)	17.3 µM (inactive)	19.8 µM (inactive)	–	14.5 µM (inactive)	17.3 µM (inactive)	17.3 µM (inactive)	29.3 µM (inactive)	13.7 µM (inactive)	18.3 µM (inactive)	10.8 µM (inactive)	18.5 µM (inactive)
CCN1C2=NCCN2S(=O)(=O)c2ccccc21	> 100 µM (inactive)	> 100 µM (inactive)	> 100 µM (inactive)	> 100 µM (inactive)	> 100 µM (inactive)	> 100 µM (inactive)	> 100 µM (inactive)	> 100 µM (inactive)	> 100 µM (inactive)	> 100 µM (inactive)	> 100 µM (inactive)	–	> 100 µM (inactive)	> 100 µM (inactive)	> 100 µM (inactive)	> 100 µM (inactive)	> 100 µM (inactive)	> 100 µM (inactive)	> 100 µM (inactive)	–
CCSCC(N)C(=O)O (stereo unspecified)	> 100 µM (inactive)	> 100 µM (inactive)	> 100 µM (inactive)	> 100 µM (inactive)	> 100 µM (inactive)	> 100 µM (inactive)	0.0337 µM (active)	> 100 µM (inactive)	> 100 µM (inactive)	> 100 µM (inactive)	> 100 µM (inactive)	> 100 µM (inactive)	> 100 µM (inactive)	> 100 µM (inactive)	> 100 µM (inactive)	–	> 100 µM (inactive)	> 100 µM (inactive)	–	> 100 µM (inactive)
O=C1CCSSCCC(=O)Nc2ccccc2N1	> 100 µM (inactive)	> 100 µM (inactive)	> 100 µM (inactive)	> 100 µM (inactive)	> 100 µM (inactive)	> 100 µM (inactive)	> 100 µM (inactive)	> 100 µM (inactive)	> 100 µM (inactive)	> 100 µM (inactive)	> 100 µM (inactive)	> 100 µM (inactive)	> 100 µM (inactive)	> 100 µM (inactive)	> 100 µM (inactive)	> 100 µM (inactive)	> 100 µM (inactive)	> 100 µM (inactive)	–	> 100 µM (inactive)
Cc1cc2nc(N3C(=O)/C(=C/c4ccccc4S)N=C3c3ccccc3)sc2cc1C	31.5 µM (inactive)	49.3 µM (inactive)	18.5 µM (inactive)	32 µM (inactive)	59.7 µM (inactive)	30.6 µM (inactive)	22.4 µM (inactive)	18.8 µM (inactive)	22.1 µM (inactive)	26.5 µM (inactive)	26.1 µM (inactive)	–	58.9 µM (inactive)	88.1 µM (inactive)	40.8 µM (inactive)	56.6 µM (inactive)	43.1 µM (inactive)	18.5 µM (inactive)	31.8 µM (inactive)	19.2 µM (inactive)
O=C1/C(=C\c2ccco2)Oc2ccccc21	> 100 µM (inactive)	98.9 µM (inactive)	> 100 µM (inactive)	> 100 µM (inactive)	> 100 µM (inactive)	> 100 µM (inactive)	> 100 µM (inactive)	> 100 µM (inactive)	> 100 µM (inactive)	> 100 µM (inactive)	76.2 µM (inactive)	–	> 100 µM (inactive)	> 100 µM (inactive)	> 100 µM (inactive)	–	> 100 µM (inactive)	> 100 µM (inactive)	> 100 µM (inactive)	89.5 µM (inactive)
Cc1ccc(S(=O)(=O)/N=C2/N(C)CCCS2(=O)=O)cc1	> 100 µM (inactive)	> 100 µM (inactive)	> 100 µM (inactive)	> 100 µM (inactive)	> 100 µM (inactive)	> 100 µM (inactive)	> 100 µM (inactive)	> 100 µM (inactive)	> 100 µM (inactive)	> 100 µM (inactive)	> 100 µM (inactive)	–	> 100 µM (inactive)	> 100 µM (inactive)	> 100 µM (inactive)	> 100 µM (inactive)	> 100 µM (inactive)	18 µM (inactive)	> 100 µM (inactive)	> 100 µM (inactive)
CCC(CCN)(CCN)[N+](=O)[O-]	> 100 µM (inactive)	–	> 100 µM (inactive)	> 100 µM (inactive)	> 100 µM (inactive)	> 100 µM (inactive)	> 100 µM (inactive)	–	> 100 µM (inactive)	> 100 µM (inactive)	–	> 100 µM (inactive)	> 100 µM (inactive)	–	> 100 µM (inactive)	> 100 µM (inactive)	–	> 100 µM (inactive)	–	> 100 µM (inactive)
C=CCN(c1cc(OCc2ccccc2)c2c(c(C)cn2S(=O)(=O)c2ccc([N+](=O)[O-])cc2)c1[N+](=O)[O-])S(C)(=O)=O	> 100 µM (inactive)	> 100 µM (inactive)	> 100 µM (inactive)	> 100 µM (inactive)	> 100 µM (inactive)	> 100 µM (inactive)	> 100 µM (inactive)	–	1.47 µM (inactive)	> 100 µM (inactive)	> 100 µM (inactive)	> 100 µM (inactive)	> 100 µM (inactive)	> 100 µM (inactive)	> 100 µM (inactive)	> 100 µM (inactive)	> 100 µM (inactive)	> 89.5 µM (inactive)	> 100 µM (inactive)	> 100 µM (inactive)
CN/C(N)=N/N=C1/C(=O)Nc2ccccc21	> 100 µM (inactive)	–	> 100 µM (inactive)	> 100 µM (inactive)	> 100 µM (inactive)	> 100 µM (inactive)	> 100 µM (inactive)	> 100 µM (inactive)	> 100 µM (inactive)	> 100 µM (inactive)	> 100 µM (inactive)	> 100 µM (inactive)	> 100 µM (inactive)	> 100 µM (inactive)	> 100 µM (inactive)	–	> 100 µM (inactive)	> 100 µM (inactive)	> 100 µM (inactive)	> 100 µM (inactive)
CCOC(=O)[C@@]12C3C=CC(CC3)[C@]1(C(=O)c1ccccc1)C(=O)C(=O)N2c1ccccc1 (stereo partly specified)	> 100 µM (inactive)	> 100 µM (inactive)	> 100 µM (inactive)	97.3 µM (inactive)	> 100 µM (inactive)	> 100 µM (inactive)	> 100 µM (inactive)	–	> 100 µM (inactive)	> 100 µM (inactive)	> 100 µM (inactive)	> 100 µM (inactive)	> 100 µM (inactive)	> 100 µM (inactive)	> 100 µM (inactive)	> 100 µM (inactive)	> 100 µM (inactive)	> 100 µM (inactive)	> 100 µM (inactive)	> 100 µM (inactive)
COc1cccc(/C=C2\N=C(c3ccccc3)OC2=O)c1	63.7 µM (inactive)	63.1 µM (inactive)	> 100 µM (inactive)	> 100 µM (inactive)	> 100 µM (inactive)	85.1 µM (inactive)	> 100 µM (inactive)	25 µM (inactive)	> 100 µM (inactive)	50.7 µM (inactive)	> 100 µM (inactive)	–	91.2 µM (inactive)	61.1 µM (inactive)	> 100 µM (inactive)	43.1 µM (inactive)	53.6 µM (inactive)	> 100 µM (inactive)	49.7 µM (inactive)	35.1 µM (inactive)
O=S(=O)(O)c1ccc(-c2c3nc(c(-c4ccc(S(=O)(=O)O)cc4)c4ccc([nH]4)c(-c4ccc(S(=O)(=O)O)cc4)c4nc(c(-c5ccc(S(=O)(=O)O)cc5)c5ccc2[nH]5)C=C4)C=C3)cc1	60.5 µM (inactive)	36.3 µM (inactive)	> 100 µM (inactive)	> 100 µM (inactive)	28.3 µM (inactive)	42 µM (inactive)	91.2 µM (inactive)	23 µM (inactive)	61 µM (inactive)	57.5 µM (inactive)	37.4 µM (inactive)	32.5 µM (inactive)	39.1 µM (inactive)	> 100 µM (inactive)	> 100 µM (inactive)	> 100 µM (inactive)	29 µM (inactive)	20.9 µM (inactive)	–	52.8 µM (inactive)
OC(c1ccc(Cl)cc1)(c1ccc(Cl)cc1)c1cncnc1	19.3 µM (inactive)	17.1 µM (inactive)	12.9 µM (inactive)	14.8 µM (inactive)	17.6 µM (inactive)	19 µM (inactive)	17.4 µM (inactive)	15.3 µM (inactive)	18.3 µM (inactive)	18.2 µM (inactive)	16 µM (inactive)	33.7 µM (inactive)	24.6 µM (inactive)	18.6 µM (inactive)	–	–	14.7 µM (inactive)	18.6 µM (inactive)	> 10 µM (inactive)	27.2 µM (inactive)
